These results are taken from patent US20030069200A1, “Use of glucosylceramide synthesis inhibitors in brain cancertherapy” (priority 2000, published 2003).

One data set has as its system neuroblastoma cells. The conditions noted are these: in vitro, cited from earlier work.
The test system of data set [1] is CT-2A tumour. The experiment in a line: Subcutaneous CT-2A tumour growth in C57BL/6 mice. The data set is classed as in vivo, mouse. As to conditions: NB-DNJ 2400 mg/kg body wt/day in diet, nine days. The protocol:
(§1) CT-2A and EPEN tumours were grown subcutaneously in the flanks of six-week old syngeneic C57BL/6 mice. The treated mice were maintained on a powdered mouse chow diet (Prolab, Agway) that contained NB-DNJ (2400 mg/kg body weight/day). The control mice received only the powdered mouse chow. Tumours were enzymatically dissociated as described in Ecsedy et al, J. Lipid Res., 39: 2218-2227, 1998 and approximately 5×10^6 cells from each tumour were inoculated subcutaneously into the flanks of the host mice. For the CT-2A-bearing mice, drug treatment was started six days post-tumour cell inoculation and was continued for a total of nine days. For the EPEN-bearing mice, drug treatment was started eleven days post-tumour inoculation and was continued for a total of ten days. This was done because the EPEN tumour grows more slowly than the CT-2A tumour (Cotterchio et al. 1993. Mol. Chem. Neuropathol. 20:163-172). The method of Looney was used to determine tumour growth rates (volume increase/day) as previously described (Cotterchio et al. 1993. Mol. Chem. Neuropathol. 20:163-172). The results are shown in FIGS. 3A and 3B where values are expressed as means±SEM except for the control EPEN, which is the mean of two independent samples.

The subject of data set [2] is CT-2A tumour. The data set is described as follows: Intra-cranial CT-2A tumour growth and ganglioside content in C57BL/6J mice. It is filed as in vivo, mouse. As to the method:
(§2) CT-2A tumour tissue was minced and tissue pieces (about 1 mm^3) were implanted into the cerebral cortex of C57BL/6J mice using a trocar as described previously (Seyfried et al. 1987. Cancer Res. 47:3538-3542). The NB-DNJ diet as in Example 2. Control mice received only the powdered mouse chow. Tumours were excised from surrounding brain tissue, frozen, and lyophilized to remove water. Gangliosides were isolated and purified and content expressed as μg sialic acid/100 mg dry weight, as determined using the resorcinol reagent, as previously described (Seyfried et al. 1978. J. Neurochem. 31:21-27).

In the next data set the test system is EPEN tumour. The experiment in a line: Subcutaneous EPEN tumour growth in C57BL/6 mice. The conditions noted are these: NB-DNJ 2400 mg/kg body wt/day in diet, ten days. It is filed as in vivo, mouse. The protocol:
as §1

In data set [3] the test system is CT-2A tumour. The data set is described as follows: Ganglioside neuraminic acid content of the CT-2A mouse brain tumour (Table 1). The conditions noted are these: treated mice, mean of N=2. The data set is classed as in vivo. The protocol: as §2
In addition, NB-DNJ reduced ganglioside content in the CT-2A mouse brain tumour grown subcutaneously (See FIG. 4B and Table 1 below).

Another data set deals with EPEN cells. The experiment in a line: Growth of cultured EPEN brain tumour cells (Coulter counter cell counts). The data set is classed as cell-based. As to conditions: NB-DNJ 200 μM. As to the method:
(§3) Approximately 0.5×10^4 cells for CT-2A and 1×10^4 cells for EPEN were seeded in wells of a 24 well plate and cultured for 24 hours in DMEM supplemented with 10% FBS. The exact cellular origin of the CT-2A and EPEN tumours is not known, but Dr. Allan Yates, Chief of Neuropathology at Ohio State University classified the tumours as poorly differentiated anaplastic astrocytomas (see Seyfried et al Mol. Chem. Neuropathol. 17: 147-167, 1992).
(§4) Cells were cultured for a further 7 days in the same medium for control cells or in the presence of NB-DNJ (200 μM) for treated cells. Cells were counted on days 2, 4, 6 and 8 using a Coulter counter and the results are shown in FIGS. 2A and 2B where values are expressed as means±SEM (N=3).

Another data set concerns CT-2A cells. The experiment in a line: Growth of cultured CT-2A brain tumour cells (Coulter counter cell counts). The data set is classed as cell-based. The conditions noted are these: NB-DNJ 200 μM. The protocol:
as §3, §4

The mark [4] stands for this setting: intra-cranial CT-2A tumours, NB-DNJ diet.

On to `CCCCCCCCCC(=O)N[C@H](CN1CCOCC1)[C@H](O)c1ccccc1` [D-PDMP, D-threo-1-phenyl-2-decanoylamino-3-morpholino-1-propanol], for which the “ganglioside shedding by neuroblastoma tumours” value with neuroblastoma cells (Li et al 1996) is “reduces ganglioside shedding”. For the same molecule, the “neurite outgrowth by neuroblastoma cells” value with neuroblastoma cells (Uemura et al 1990) is on record as “inhibit neurite outgrowth”.

For `CCCCN1C[C@H](O)[C@@H](O)[C@H](O)[C@H]1CO` [NB-DNJ, N-butyldeoxynojirimycin], in the data set with CT-2A tumour [1], the “reduction of tumour growth rate compared to untreated controls” value is 68%. Besides, the “intra-cranial growth of the CT-2A tumour” value with CT-2A tumour [2] (NB-DNJ dietary treatment) was “significantly reduced”. For the same molecule, the “blood brain barrier penetration” value in the data set with CT-2A tumour [2] (inferred from the effect on intra-cranial tumours, dietary treatment) was “can penetrate the blood brain barrier”. For the same molecule, in the data set with CT-2A tumour [2] (setting [4]), the “reduction in ganglioside concentration” value is 53% and the “reduction in tumour dry weight” value worked out at 55%. Further, in the data set on EPEN tumour, the “reduction of tumour growth rate compared to untreated controls” value was 76%. Further, in the data set on CT-2A tumour [3], the “Ganglioside Neuraminic Acid Content, NeuAc” value came out at 21.8 μg/100 mg dry wt; the “Ganglioside Neuraminic Acid Content, NeuGc” value came to 5.6 μg/100 mg dry wt; the “Ganglioside Neuraminic Acid Content, Total” value turned out to be 27.1 μg/100 mg dry wt. In addition, the “percentage of dead cells vs control (trypan blue exclusion)” value in the data set with EPEN cells (EPEN culture) is “did not differ significantly”. In addition, the “growth inhibition of cultured EPEN tumour cells” value in the data set on EPEN cells (after 8 days) was “about 50%”. Further, the “percentage of dead cells vs control (trypan blue exclusion)” value in the data set on CT-2A cells (CT-2A culture) was “did not differ significantly”. Further, the “growth inhibition of cultured CT-2A tumour cells” value in the data set on CT-2A cells (after 8 days) is recorded as “about 50%”.
